Holding throughout (format): cell-based
Test [1] has as its target T1, pERK1/2 (Thr202/Tyr204), NCI-1H358 (KRAS G12C) (Homo sapiens, UniProt P01116, G12C).
T1 construct: pERK1/2 HTRF read-out
The experiment in a line: Assay of intracellular pERK1/2 (Thr202/Tyr204) phosphorylation in NCI-H358 cells (KRAS G12C). The note with it: pERK1/2, 2 days, read-out: NCI-H358 (KRAS G12C) IC50. Summed up: (§1)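 Cells (10000-12000/well) exposed to 3-fold compound dilutions for 2 days at 37 °C, then lysed; pERK1/2 (Thr202/Tyr204) measured by HTRF with d2 and cryptate antibodies, 665/615 nm ratio.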

The target in test [2] is T2, pERK1/2 (Thr202/Tyr204), PANC-1 (KRAS G121D) (Homo sapiens, UniProt P01116, G12D).
T2 construct: pERK1/2 HTRF read-out
T2 sequence (P01116 1-188 isoform P01116-2 G12D): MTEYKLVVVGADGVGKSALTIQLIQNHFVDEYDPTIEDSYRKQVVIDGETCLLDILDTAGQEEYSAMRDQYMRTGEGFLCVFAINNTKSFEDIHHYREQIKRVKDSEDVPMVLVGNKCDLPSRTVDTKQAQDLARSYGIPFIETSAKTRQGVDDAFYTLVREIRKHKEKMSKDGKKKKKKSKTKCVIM
The experiment in a line: Assay of intracellular pERK1/2 (Thr202/Tyr204) phosphorylation in PANC-1 cells (KRAS G12D). The conditions noted are these: pERK1/2, 2 days, read-out: PANC-1 (KRAS G12D) IC50. The procedure, abridged:
as §1

The target of test [3] is T3, pERK1/2 (Thr202/Tyr204), NCI-1H441 (KRAS G12V) (Homo sapiens, UniProt P01116, G12V).
T3 construct: pERK1/2 HTRF read-out
T3 sequence (P01116 1-188 isoform P01116-2 G12V): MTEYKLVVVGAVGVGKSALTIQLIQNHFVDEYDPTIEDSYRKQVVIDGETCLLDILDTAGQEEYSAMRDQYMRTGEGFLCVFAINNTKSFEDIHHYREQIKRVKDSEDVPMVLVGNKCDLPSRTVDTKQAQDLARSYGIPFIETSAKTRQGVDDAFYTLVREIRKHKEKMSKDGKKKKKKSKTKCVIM
The experiment in a line: Assay of intracellular pERK1/2 (Thr202/Tyr204) phosphorylation in NCI-H441 cells (KRAS G12V). The note with it: pERK1/2, 2 days, read-out: NCI-H441 (KRAS G12V) IC50. Summed up: as §1

T1 sequence (P01116 1-188 isoform P01116-2 G12C): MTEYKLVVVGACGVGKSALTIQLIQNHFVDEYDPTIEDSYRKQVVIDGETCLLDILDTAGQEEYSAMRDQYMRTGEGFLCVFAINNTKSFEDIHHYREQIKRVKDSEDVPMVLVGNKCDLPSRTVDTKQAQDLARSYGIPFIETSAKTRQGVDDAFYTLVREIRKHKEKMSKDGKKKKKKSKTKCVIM

For `CC(c1cccnc1N)N1CCOc2nc(-c3cc(N)cc(F)c3C(F)(F)F)c(F)c3nc(OC[C@@]45CCCN4C[C@H](F)C5)nc1c23` (single isomer, unassigned) [Compound 89, 3-((R or S)-1-(5-(5-amino-3-fluoro-2-(trifluoromethyl)phenyl)-4-fluoro-2-(((2R,7aS)-2-fluorotetrahydro-1H-pyrrolizin-7a(5H)-yl)methoxy)-8,9-dihydro-10H-7-oxa-1,3,6,10-tetraazacyclohepta[de]naphthalen-10-yl)ethyl)pyridin-2-amine], the IC50 (commonly the point on the concentration scale where inhibition reaches its midpoint) in test [1] was 26 nM; in test [2] it was over 100 nM; in test [3] it was 43 nM.
For `CC(c1cccnc1N)N1CCOc2nc(-c3cc(N)cc(F)c3C(F)(F)F)c(F)c3nc(OC[C@@H]4CCCN4C)nc1c23` (single isomer, unassigned) [Compound 90, 3-((R or S)-1-(5-(5-amino-3-fluoro-2-(trifluoromethyl)phenyl)-4-fluoro-2-(((S)-1-methylpyrrolidin-2-yl)methoxy)-8,9-dihydro-10H-7-oxa-1,3,6,10-tetraazacyclohepta[de]naphthalen-10-yl)ethyl)pyridin-2-amine], in that order: 2 nM, 91 nM and 6 nM.
For `CC(c1cccnc1N)N1CCOc2nc(-c3cc(N)cc(F)c3C(F)(F)F)c(F)c3nc(OC[C@@H]4CCCN4C)nc1c23` (single isomer, unassigned) [Compound 91, 3-((R or S)-1-(5-(5-amino-3-fluoro-2-(trifluoromethyl)phenyl)-4-fluoro-2-(((S)-1-methylpyrrolidin-2-yl)methoxy)-8,9-dihydro-10H-7-oxa-1,3,6,10-tetraazacyclohepta[de]naphthalen-10-yl)ethyl)pyridin-2-amine], in that order: over 100 nM, over 100 nM and over 100 nM.
As for `CC(c1cccnc1N)N1CCOc2nc(-c3cc(N)cc(F)c3C(F)(F)F)c(F)c3nc(OC[C@@H]4C[C@@H](F)CN4C)nc1c23` (single isomer, unassigned) [Compound 92, 3-((R or S)-1-(5-(5-amino-3-fluoro-2-(trifluoromethyl)phenyl)-4-fluoro-2-(((2S,4R)-4-fluoro-1-methylpyrrolidin-2-yl)methoxy)-8,9-dihydro-10H-7-oxa-1,3,6,10-tetraazacyclohepta[de]naphthalen-10-yl)ethyl)pyridin-2-amine], the concentration for half-maximal inhibition (IC50) was found to be 1 nM in test [1], 58 nM in test [2] and 2 nM in test [3].
For `CC(c1cccnc1N)N1CCOc2nc(-c3cc(N)cc(F)c3C(F)(F)F)c(F)c3nc(OC[C@@H]4C[C@@H](F)CN4C)nc1c23` (single isomer, unassigned) [Compound 93, 3-((R or S)-1-(5-(5-amino-3-fluoro-2-(trifluoromethyl)phenyl)-4-fluoro-2-(((2S,4R)-4-fluoro-1-methylpyrrolidin-2-yl)methoxy)-8,9-dihydro-10H-7-oxa-1,3,6,10-tetraazacyclohepta[de]naphthalen-10-yl)ethyl)pyridin-2-amine], in that order: over 100 nM, over 100 nM and over 100 nM.
In the same order, the values of `[2H]C([2H])([2H])N1CCC[C@H]1COc1nc2c3c(nc(-c4cc(N)cc(C)c4C(F)(F)F)c(F)c3n1)OCCN2C(C)c1cccnc1N` (single isomer, unassigned) [Compound 95, 3-((R or S)-1-(5-(5-amino-3-methyl-2-(trifluoromethyl)phenyl)-4-fluoro-2-(((S)-1-(methyl-d3)pyrrolidin-2-yl)methoxy)-8,9-dihydro-10H-7-oxa-1,3,6,10-tetraazacyclohepta[de]naphthalen-10-yl)ethyl)pyridin-2-amine] are 0.8 nM, 24 nM and 2 nM.
Take `[2H]C([2H])([2H])N1CCC[C@H]1COc1nc2c3c(nc(-c4cc(N)cc(C)c4C(F)(F)F)c(F)c3n1)OCCN2C(C)c1cccnc1N` (single isomer, unassigned) [Compound 96, 3-((R or S)-1-(5-(5-amino-3-methyl-2-(trifluoromethyl)phenyl)-4-fluoro-2-(((S)-1-(methyl-d3)pyrrolidin-2-yl)methoxy)-8,9-]: the IC50 in test [1] was 27 nM; in test [2], over 100 nM; in test [3], 57 nM.
For `CC(c1cccnc1N)N1CCOc2nc(-c3cc(N)cc(Cl)c3C(F)(F)F)c(F)c3nc(OC[C@@H]4CCCN4C)nc1c23` (single isomer, unassigned) [Compound 98, 3-((R or S)-1-(5-(5-amino-3-chloro-2-(trifluoromethyl)phenyl)-4-fluoro-2-(((S)-1-methylpyrrolidin-2-yl)methoxy)-8,9-dihydro-10H-7-oxa-1,3,6,10-tetraazacyclohepta[de]naphthalen-10-yl)ethyl)pyridin-2-amine], in that order: 0.3 nM, 10 nM and 0.5 nM.
In the same order, the values of `CC(c1cccnc1N)N1CCOc2nc(-c3cc(N)cc(Cl)c3C(F)(F)F)c(F)c3nc(OC[C@@H]4CCCN4C)nc1c23` (single isomer, unassigned) [Compound 99, 3-((R or S)-1-(5-(5-amino-3-chloro-2-(trifluoromethyl)phenyl)-4-fluoro-2-(((S)-1-methylpyrrolidin-2-yl)methoxy)-8,9-dihydro-10H-7-oxa-1,3,6,10-tetraazacyclohepta[de]naphthalen-10-yl)ethyl)pyridin-2-amine] are 27 nM, over 100 nM and 33 nM.
For the molecule `Cc1cc(N)cc(-c2nc3c4c(nc(OC[C@]56CCCN5[C@@H](CO)CC6)nc4c2F)N([C@H](C)c2cccnc2N)CCO3)c1C(F)(F)F` (single isomer, unassigned) [Compound 100, ((3R,7aR)-7a-(((5-(5-amino-3-methyl-2-(trifluoromethyl)phenyl)-10-((R or S)-1-(2-aminopyridin-3-yl)ethyl)-4-fluoro-9,10-dihydro-8H-7-oxa-1,3,6,10-tetraazacyclohepta[de]naphthalen-2-yl)oxy)methyl)hexahydro-1H-pyrrrolizin-3-yl)methanol], the IC50 in test [1] is 93 nM; in test [2] it was over 100 nM; in test [3], over 100 nM.
Turning to `Cc1cc(N)cc(-c2nc3c4c(nc(OC[C@]56CCCN5[C@@H](CO)CC6)nc4c2F)N(C(C)c2cccnc2N)CCO3)c1C(F)(F)F` (single isomer, unassigned) [Compound 101, ((3R,7aR)-7a-(((5-(5-amino-3-methyl-2-(trifluoromethyl)phenyl)-10-((R or S)-1-(2-aminopyridin-3-yl)ethyl)-4-fluoro-9,10-dihydro-8H-7-oxa-1,3,6,10-tetraazacyclohepta[de]naphthalen-2-yl)oxy)methyl)hexahydro-1H-pyrrolizin-3-yl)methanol], the IC50 in test [1], in test [2] and in test [3] was over 100 nM in each case.

Source of the values: patent US20260356851A1, “TRICYCLIC COMPOUNDS AND USES THEREOF” (HUTCHMED LIMITED, priority 2023, published 2026).
